Data taken from patent publication US5026836A, “6-sulfenamide, 6-sulfinamide and 6-sulfonamide purines, purine nucleosides, purine nucleotides, pharmaceutical compositions, and processes of making” (priority 1988, dated 1991).
Like-named read-outs stand apart in the source and are kept apart here. Starred links: 1 amine or outer side, 2 acyl side, 3 side chain; linkers in the order of their positions; H or OH if unused. Positions of bridges follow the written chain, without caps; N, C: chain ends. Non-standard residues stand in square brackets, D forms with d. Residues, ends and D or L forms follow the SMILES beside them. Chains are numbered I, II in the order given. Actinocin(9to1) = Cc1c2oc3c(C)ccc(C(=O)[*:1])c3nc-2c(C(=O)[*:2])c(N)c1=O; NMeV = CN[C@H](C(=O)O)C(C)C; Sar = CNCC(=O)O

Columns and labels:
L1210 cells [1] = assay: L1210 cells surviving treatment (% of original inoculum); type: in vivo, mouse; conditions: for L1210 cells surviving treatment (% of original inoculum): ip day 1, Enantiomer A 37 mg/kg, Enantiomer B 173 mg/kg
Excerpt: (§1) Values below 25% are considered capable of producing effective therapy, those below 10% are considered good and those below 5% are considered very good. This expresses the percent of the cells which survived treatment based upon the original cells in the inoculum. Those tests expressed as increases in life span (% ILS) indicate the increased life span of the drug treated group compared to a control group.
As an indicator of reproducible activity, compounds of the invention and other known cancer chemotherapeutic agents were screened against L1210 lymphoid leukemia in vivo utilizing the mouse as a test species. Normal NCI protocols for this test require 10^5 seed cells of the L1210 cell line. However for the purposes of tests with the L1210 cell line in testing the compounds of the invention for antitumor activity, a log greater, i.e. 10^6 cells were utilized.
Tables 2-a and 2-b illustrate a dose response for Compound 19 against L1210 inoculated mice expressed as both increased life span compared to control and as the number of cells of the original inoculum surviving drug treatment. As is evident from the various regimens of drug treatment shown in Tables 2-a and 2-b, effective therapeutic effects are noted and a dose response to Compound 19 is evident. […] Cytosine Arabinoside must be given every three hours. Test results are given utilizing standard protocols based on mean survival time and are expressed as T/C percentages (treated animals/control animals).

L1210 cells [2] = assay: Life span of BDF1 mice inoculated ip with 10^6 L1210 leukemia cells; type: in vivo, mouse; conditions: for T/C (%): ip day 1, Enantiomer A 37 mg/kg, Enantiomer B 173 mg/kg; for relative activity of the two enantiomers (words): mouse, in vivo; for Increased life span: qd days 1,3,5,7; for T/C: single QD day 1 ip (Table 14-b)
Method: As illustrative examples of use of the compounds of the invention the following examples are given. […] These standard tests utilize protocols developed under the auspices of the Developmental Therapeutics Program, Division of Cancer Treatment, National Cancer Institute, Bethesda, Md., U.S.A. Except as otherwise indicated the tests conform to these protocols and are evaluated utilizing criteria defined by the protocols.
as §1
As an indicator of reproducible activity, compounds of the invention and other known cancer chemotherapeutic agents were screened against L1210 lymphoid leukemia in vivo utilizing the mouse as a test species. Normal NCI protocols for this test require 10^5 seed cells of the L1210 cell line.
Cytosine Arabinoside must be given every three hours.
Mice were inoculated intraperitoneally on day 0 with a million cells of murine leukemia L1210. Drug was given qd days 1, 4 and 7. Increased life span is the mean increase in the treated group presented as a percentage of the mean life span of control mice.
Mice were inoculated intraperitoneally on day 0 with a million cells of murine leukemia L1210. Drugs were given qd days 1, 3, 5 and 7. Increased life span is presented as a percentage of the mean life span of control mice.

[3] = Solubility (maximum solubility); type: physicochemical
[4] = test system: Human Colon Adenocarcinoma CX-1; conditions: data from Goldin et al 1981; activity indicated at ≤20; cited from earlier work
L1210 cells [5] = assay: Bioassay of viable L1210 cells in brain after intracranial inoculation and ip drug; type: in vivo, mouse; conditions: 24 hr after single ip dose (mg/kg): Methotrexate 12, Adriamycin 3, 6-Mercaptopurine 160, Cytosine Arabinoside 1200, Cyclophosphamide 140, Compound 19 173, Tiazofurin 1200, BCNU 20
Excerpt: BDF1 mice were inoculated intracranially on day 0 with 1×10^5 L1210 cells. […] 24 hr after drug delivery the brains were collected, homogenized, and injected ip into untreated mice. Each mouse received the equivalent of half a brain. Thereafter, life span was monitored and, using inoculum-response data as a base of comparison, estimates were made of the numbers of viable cells in treated and control brains.

[6] = Toxicity / maximum tolerated dosage in mice; type: in vivo; conditions: mouse, in vivo, ip, single QD day 1 ip, read-out: Max. tolerated dosage
Method: In Example N other compounds of the invention were tested against L1210 cells. […] Activity in Table 14-a is tabulated as both increases in life span and as cells surviving treatment and that in table 14-b as T/C.

## Nc1nc([S+](N)[O-])c2ncn([C@@H]3O[C@H](CO)[C@@H](O)[C@H]3O)c2n1 (single isomer, unassigned) [Enantiomer A]
L1210 cells [1]; 37 mg/kg/inj bid day 1, total A 70.94 mg/kg
  Cells surviving treatment (% of original inoc.): 10%
L1210 cells [1]; 37 mg/kg/inj qd day 1, total A 35.47 mg/kg
  Cells surviving treatment (% of original inoc.): 64%
L1210 cells [1]; 37 mg/kg/inj qid day 1, total A 141.88 mg/kg
  Cells surviving treatment (% of original inoc.): 1%
L1210 cells [1]; 37 mg/kg/inj tid day 1, total A 106.41 mg/kg
  Cells surviving treatment (% of original inoc.): 1%
L1210 cells [1]
  L1210 cells surviving treatment (% of original inoculum): 182.8%
L1210 cells [2]; 37 mg/kg/inj bid day 1, total A 70.94, B 1.26, contaminant 1.80 mg/kg
  % ILS: 44%
L1210 cells [2]; 37 mg/kg/inj printed qid day 1, total A 177.35, B 3.15, contaminant 4.50 mg/kg
  % ILS: 0%
L1210 cells [2]; 37 mg/kg/inj qd day 1, total A 35.47, B 0.63, contaminant 0.90 mg/kg
  % ILS: 22%
L1210 cells [2]; 37 mg/kg/inj qid day 1, total A 141.88, B 2.52, contaminant 3.60 mg/kg
  % ILS: 72%
L1210 cells [2]; 37 mg/kg/inj tid day 1, total A 106.41, B 1.89, contaminant 2.70 mg/kg
  % ILS: 72%
L1210 cells [2]
  T/C (%): 108.7%
  relative activity of the two enantiomers (words): greater activity with respect to enantiomer B because of solubility differences
L1210 cells [2]; listed as enantiomer A
  relative activity of the two enantiomers (words): comparable activity
[3]
  solubility: about 3.7 mg per ml

## Nc1nc([S+](N)[O-])c2ncn([C@@H]3O[C@H](CO)[C@@H](O)[C@H]3O)c2n1 (single isomer, unassigned) [Enantiomer B]
L1210 cells [1]
  L1210 cells surviving treatment (% of original inoculum): 7.5%
L1210 cells [2]
  T/C (%): 144.9%
  relative activity of the two enantiomers (words): comparable activity
[3]
  solubility: about 17.3 mg per ml

## O=c1[nH]cc(F)c(=O)[nH]1 [5-Fluorouracil]
[4]
  Activity rating δT/δC: 88

## Nc1nc2nc[nH]c2c(=S)[nH]1 [6-Thioguanine]
[4]
  Activity rating δT/δC: 81

## Nc1nc2c(ncn2[C@@H]2O[C@H](CO)[C@@H](O)[C@H]2O)c(=S)[nH]1 [6-Thioguanosine, reference compound]
L1210 cells [2]; 8.1 mg/kg/inj injected
  Increased life span: 48%
L1210 cells [2]; 13 mg/kg/inj injected
  Increased life span: 38%
L1210 cells [2]; 22 mg/kg/inj injected
  Increased life span: 42%
L1210 cells [2]; 37 mg/kg/inj injected
  Increased life span: 45%
L1210 cells [2]; 62 mg/kg/inj injected
  Increased life span: 42%
L1210 cells [2]; 104 mg/kg/inj injected
  Increased life span: 42%
L1210 cells [2]; 173 mg/kg/inj injected
  Increased life span: 52%

## Cc1c2oc3c(C)ccc(C(=O)N[C@@H]4C(=O)N[C@H](C(C)C)C(=O)N5CCC[C@H]5C(=O)N(C)CC(=O)N(C)[C@@H](C(C)C)C(=O)O[C@@H]4C)c3nc-2c(C(=O)N[C@@H]2C(=O)N[C@H](C(C)C)C(=O)N3CCC[C@H]3C(=O)N(C)CC(=O)N(C)[C@@H](C(C)C)C(=O)O[C@@H]2C)c(N)c1=O [Actinomycin D] (I: T[dV]P[Sar][NMeV] / II: T[dV]P[Sar][NMeV]; ester I:1-I:C, II:1-II:C; linker I:N-II:N via Actinocin(9to1))
[4]
  Activity rating δT/δC: 73

## COc1cccc2c1C(=O)c1c(O)c3c(c(O)c1C2=O)C[C@@](O)(C(=O)CO)C[C@@H]3O[C@H]1C[C@H](N)[C@H](O)[C@H](C)O1 [Adriamycin, reference compound]
[4]
  Activity rating δT/δC: 72
L1210 cells [5]
  Residual cells (% of control brain): 89.5%

## O=NN(CCCl)C(=O)NCCCl [BCNU, reference compound]
[4]
  Activity rating δT/δC: 63
L1210 cells [5]
  Residual cells (% of control brain): 1.6%

## O=NN(CCCl)C(=O)NC1CCCCC1 [CCNU]
[4]
  Activity rating δT/δC: 77

## O=C(O)CCCc1ccc(N(CCCl)CCCl)cc1 [Chlorambucil]
[4]
  Activity rating δT/δC: 60

## O=NN(CCCl)C(=O)N[C@H]1C(O)O[C@H](CO)[C@@H](O)[C@@H]1O (some centres unmarked) [Chlorozotocin]
[4]
  Activity rating δT/δC: 75

## N.N.[Cl][Pt][Cl] [Cis-Platinum]
[4]
  Activity rating δT/δC: 66

## NSc1nc(N)nc2nc[nH]c12 [Compound 2, 2-Aminopurine-6-sulfenamide]
[6]; DMSO vehicle, BDF1 mice
  MTD: 37 mg/kg
[6]; NaOH vehicle, BDF1 mice
  MTD: 104 mg/kg

## NSc1ncnc2c1ncn2[C@@H]1O[C@H](CO)[C@@H](O)[C@H]1O [Compound 6, 9-β-D-Ribofuranosyl-9H-purine-6-sulfenamide]
[6]; L1210-inoculated BDF1 mice
  MTD: 480 mg/kg
[3]
  Max. sol. dosage: 480 mg/kg

## C[C@H]1O[C@@H](n2cnc3c([S+](N)[O-])nc(N)nc32)[C@H](O)[C@@H]1O (stereo partly drawn) [Compound 42, 2-Amino-9-(5-deoxy-β-D-ribofuranosyl)-9H-purine-6-sulfinamide]
L1210 cells [2]; NaOH vehicle
  T/C: 172
[3]
  Max. sol. dosage: 104 mg/kg

## C[C@H]1O[C@@H](n2cnc3c(S(N)(=O)=O)nc(N)nc32)[C@H](O)[C@@H]1O [Compound 43, 2-Amino-9-(5-deoxy-β-D-ribofuranosyl)-9H-purine-6-sulfonamide]
L1210 cells [2]
  T/C: 130
[3]
  Max. sol. dosage: 480 mg/kg

## NSc1nc(N)nc2c1ncn2[C@H]1C[C@H](O)[C@@H](CO)O1 [Compound 45, 2-Amino-9-(2-deoxy-β-D-erythro-pentofuranosyl)-9H-purine-6-sulfenamide]
L1210 cells [2]
  T/C: 172
[3]
  Max. sol. dosage: 480 mg/kg

## Nc1nc([S+](N)[O-])c2ncn([C@@H]3O[C@H](CO)[C@@H](O)[C@@H]3O)c2n1 (stereo partly drawn) [Compound 50, 2-Amino-9-β-D-arabinofuranosyl-9H-purine-6-sulfinamide]
L1210 cells [2]
  T/C: 140
[3]
  Max. sol. dosage: 800 mg/kg

## NS(=O)(=O)c1ncnc2c1ccn2[C@H]1C[C@H](O)[C@@H](CO)O1 [Compound 55, 7-(2-Deoxy-β-D-erythro-pentofuranosyl)pyrrolo[2,3-d]-pyrimidine-4-sulfonamide]
L1210 cells [2]
  T/C: 125
[3]
  Max. sol. dosage: 288 mg/kg

## O=P1(N(CCCl)CCCl)NCCCO1 (centres unmarked) [Cyclophosphamide, reference compound]
[4]
  Activity rating δT/δC: 113
L1210 cells [5]
  Residual cells (% of control brain): 11.5%

## CN(C)/N=N/c1[nH]cnc1C(N)=O [DTIC]
[4]
  Activity rating δT/δC: 92

## CN(C)c1nc(N(C)C)nc(N(C)C)n1 [Hexamethylmelamine]
[4]
  Activity rating δT/δC: 85

## N[C@@H](Cc1ccc(N(CCCl)CCCl)cc1)C(=O)O [Melphalan]
[4]
  Activity rating δT/δC: 101

## CN(Cc1cnc2nc(N)nc(N)c2n1)c1ccc(C(=O)N[C@@H](CCC(=O)O)C(=O)O)cc1 [Methotrexate, reference compound]
[4]
  Activity rating δT/δC: 66
L1210 cells [5]
  Residual cells (% of control brain): 97%

## CC1CCC(NC(=O)N(CCCl)N=O)CC1 (centres unmarked) [Methyl CCNU]
[4]
  Activity rating δT/δC: 83

## CO[C@@]12[C@H](COC(N)=O)C3=C(C(=O)C(C)=C(N)C3=O)N1C[C@@H]1N[C@@H]12 [Mitomycin C]
[4]
  Activity rating δT/δC: 62

## CNNCc1ccc(C(=O)NC(C)C)cc1 [Procarbazine]
[4]
  Activity rating δT/δC: 60

## NC(=O)c1csc([C@@H]2O[C@H](CO)[C@@H](O)[C@H]2O)n1 [Tiazofurin, reference compound]
L1210 cells [2]; single agent day 1, Compound 19 173 mg/kg, Tiazofurin 22 mg/kg (Table 13)
  % ILS: 44%
L1210 cells [5]
  Residual cells (% of control brain): 2.9%

## CC[C@]1(O)C[C@@H]2CN(CCc3c([nH]c4ccccc34)[C@@](C(=O)OC)(c3cc4c(cc3OC)N(C)[C@H]3[C@@](O)(C(=O)OC)[C@H](OC(C)=O)[C@]5(CC)C=CCN6CC[C@]43[C@@H]65)C2)C1 [Vinblastine]
[4]
  Activity rating δT/δC: 119

## CC[C@]1(O)C[C@H]2CN(CCc3c([nH]c4ccccc34)[C@@](C(=O)OC)(c3cc4c(cc3OC)N(C=O)[C@H]3[C@@](O)(C(=O)OC)[C@H](OC(C)=O)[C@]5(CC)C=CCN6CC[C@]43[C@@H]65)C2)C1 [Vincristine]
[4]
  Activity rating δT/δC: 89

## Bleomycin
[4]
  Activity rating δT/δC: 51
